Reference: patent US20170157192A1, “USE OF THE CHINESE MEDICINE COMPOSITION AND DIANXIANNING IN THE PREPARATION OF A MEDICAMENT FOR PREVENTING OR TREATING ALZHEIMER'S DISEASES” (Lanzhou University, priority 2014, published 2017)
Structures can show the parent of a compound that is named as a salt.

Key:
[1] = system: transgenic C. elegans strain CL4176 expressing human Aβ; conditions: 2.16 mg/mL; it has been reported; cited from earlier work
[2] = system: transgenic C. elegans strain CL4176 expressing human Aβ; assay: Aβ-induced paralysis in transgenic C. elegans strain CL4176; type: in vivo, Caenorhabditis elegans; conditions: Example 2, FIG. 1, dose-dependent
From the text: The present invention employed the transgenic C. elegans strain CL4176 as a pathological model to evaluate the effect of the Chinese medicine and DXN on preventing or treating AD. The principle of Aβ theory of AD is based on that Aβ aggregates in the cerebral cortex and hippocampus and subsequently forms senile plaques (SP), which is one of the most major pathological features of AD. Toxic Aβ can effectively weaken the structure and function of synapses, and cause memory impairment on the AD patients. Transgenic C. elegans strain CL4176 which expresses the human Aβ species in the muscle tissue that can induce Aβ-dependent paralysis at 25° C. was used in the present invention. Aβ aggregates in the muscle tissue, eventually resulting in the paralysis of CL4176. The medicament acts on C. elegans strain CL4176.
(1) C. elegans CL4176 is purchased from Caenorhabditis Genetics Center; which is a transgenic strain and muscle-specific expression of human Aβ can be induced at 25° C., and Aβ is aggregated in muscle tissue, resulting in the paralysis of C. elegans. CL4176 worm was used in the invention as a pathological model to screen and evaluate the anti-AD actions of the Chinese medicine compositions and DXN.
The synchronized C. elegans eggs were placed onto solid NGM coated with OP50 and containing different concentration of Memantine Hydrochloride. The blank control is a NMG medium coated with OP50 and added with the same volume of ddH2O to replace the Memantine Hydrochloride. The worms were cultured at 16° C. for 3 days to L3 larvae (about 60 worms per plate). The results are presented as the average of three biological replicates.
In order to induce the Aβ expression, the culture temperature of transgenic L3 larvae C. elegans CL4176 was shifted from 16° C. to 25° C. for 34 h. Then paralysis individuals were counted under a dissecting stereo microscope at 2 h intervals until all worms became paralyzed.
The synchronized C. elegans eggs were placed onto solid NGM coated with OP50 and containing working concentration of the Chinese medicine compositions. […]

[3] = system: C. elegans CL4176; assay: Toxicity on growth and development (body length) of C. elegans; type: in vivo, Caenorhabditis elegans; conditions: Example 2, FIG. 1
Protocol: C. elegans are sensitive to environmental changes, and drug toxicity can be accurately evaluated by using C. elegans. The body length is one of the most commonly used indictors of developmental toxicity.
After the end of paralysis experiment, worms were immediately placed at 50° C. for 15 min to straighten the body of every worm. The worms were observed and photographed under a microscope, and measured the length of every worm using MvImage system.

CC12CC3CC(C)(C1)CC(N)(C3)C2 [Menantine Hydrochloride, 1-amino-3,5-dimethyl amantadine hydrochloride]
delay of Aβ-induced paralysis in transgenic CL4176 (reported) [1]: significantly delay Aβ-induced paralysis | delay of Aβ-induced paralysis of CL4176 ([2]; 4.32 μg/mL in NGM): significantly delayed the paralysis | delay of Aβ-induced paralysis of CL4176 ([2]; 0.86m/mL in NGM): significantly delayed the paralysis | delay of Aβ-induced paralysis of CL4176 ([2]; 21.58m/mL in NGM): significantly delayed the paralysis | inhibition of development of C. elegans ([3]; 107.88 m/mL in NGM): strongly inhibit the development | inhibition of development of C. elegans ([3]; 215.76 m/mL in NGM): strongly inhibit the development
